From patent publication US20020132823A1, “Assay method” (priority 2001, published 2002)

Columns and labels:
Recombinant human Prak = biological target: T1, Recombinant human Prak (Homo sapiens, UniProt Q8IW41); assay: In vitro kinase assay Prak (HSP27 phosphorylation, 33P-ATP); type: biochemical; conditions: activated recombinant human Prak, His-HSP27 substrate, 1 h at room temperature
T1 construct: His6; made in house; host or cells: E. coli
T1 sequence (Q8IW41 1-471 isoform Q8IW41-2): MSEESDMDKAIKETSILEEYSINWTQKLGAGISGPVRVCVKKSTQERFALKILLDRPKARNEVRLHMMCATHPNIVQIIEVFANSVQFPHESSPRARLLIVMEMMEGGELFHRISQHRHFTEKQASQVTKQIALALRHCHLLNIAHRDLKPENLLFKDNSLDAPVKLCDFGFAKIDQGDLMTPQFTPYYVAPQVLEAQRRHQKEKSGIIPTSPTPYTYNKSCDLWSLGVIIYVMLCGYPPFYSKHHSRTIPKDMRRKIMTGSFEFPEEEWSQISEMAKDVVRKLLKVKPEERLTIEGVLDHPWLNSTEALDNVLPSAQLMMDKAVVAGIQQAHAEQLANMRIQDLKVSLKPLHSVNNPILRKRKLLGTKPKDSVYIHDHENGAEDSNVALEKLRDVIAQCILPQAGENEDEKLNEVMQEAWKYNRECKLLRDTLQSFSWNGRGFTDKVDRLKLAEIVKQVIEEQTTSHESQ
Experimental: Recombinant human Prak was expressed in E. coli as His6-tagged protein substantially as described for Mnk1 by Tschopp et al. (Tschopp et al. (2000) Phoshorylation of eIF-4E on Ser 209 in response to mitogenic and inflammatory stimuli is faithfully detected by specific antibodies. Molecular Cell Biology Res. Comm. 3, 205-211). Phospho-p38a and His6-Hsp27 was prepared substantially as described (New et al. and Tschopp et al. ibid). All kinase reactions were performed with the following reaction buffer. Kinase buffer (5×): 125 mM Hepes (Stock at 1M; Gibco #15630-056), 125 mM β-glycerophosphate (Sigma #G-6251):125 mM MgCl2 (Merck #5833); 0.5 mM Sodium orthovanadate (Sigma #5-6508), 10 mM DTT (Boehringer Mannheim #708992), pH 7.4. The (5×) kinase buffer is freshly prepared from 25× stock solution. DTT is stored frozen at −20° C. in small aliquots and added immediately before use.
Prior to the assay, recombinant Prak is phosphorylated by incubation with phospho-p38. […]
The assay is stopped after one hour of incubation at room temperature by the addition of 5 μl EDTA 0.5M. […] After washing and drying the membrane, incorporated label is quantified by liquid scintillation counting.

[1] = system: TNFα release from human peripheral blood mononuclear cells; assay: TNFα release from human PBMCs (LPS/γ-interferon stimulated, ELISA); type: cell-based; conditions: PBMC, LPS 5 μg/ml + γ-interferon 100 U/ml, 3 hours
Experimental: (§1) 2. TNFα and IL-1 Release from Human PBMCs
(§2) Cell Separation and Culture
(§3) All cell culture and ELISA work was done on 96 well plates (Costar). Mononuclear cells were prepared from the blood of healthy volunteers using ficoll-hypaque density separation according to the method of Hansel et al (Hansel TT et al. (1991) An improved immunomagnetic procedure for the isolation of highly purified human blood eosinophils. J. Imm. Methods 145, 105-110) and used at a concentration of 100,000 cells/well in RPMI 1640, 5% FCS (Gibco). Serial dilution of the test compound were made in DMSO and diluted with culture medium. Final DMSO concentration in the culture medium was 0.1%. […]
For ELISA determination, supernatants were diluted 1:1 and added into a plate coated with the anti humanTNF monoclonal antibody (357-101-4, clone 92030603 from European Collection of Animal Cell Cultures, antibody produced and purified within Novartis Pharma, 1 μg/ml in PBS) After overnight incubation, the plates were washed (4×) and biotinylated anti humanTNF monoclonal antibody 2-179-E11 (clone 92030602 (European Collection of Animal Cell Cultures), produced and purified in Novartis Pharma) was added to a final concentration of 1 μg/ml (100 μl/well). […] Color formation was monitored in a Bio-Tec ELx 808 plate reader at 405 nm in the kinetic mode for 30 minutes. […]

[2] = system: IL-1β release from human peripheral blood mononuclear cells; assay: IL-1β release from human PBMCs (LPS/γ-interferon stimulated, ELISA); type: cell-based; conditions: PBMC, LPS 5 μg/ml + γ-interferon 100 U/ml, 4.5 hours
Experimental: as §1, §2
as §3, with “0.1%. Compound were preincubated with the cells for 30 minutes at 37° C., 5% CO2. Then, the cells were stimulated with LPS (5 μg/ml, Sigma) and γ-interferon (100 U/ml, Boehringer Mannheim) and cultured for 3 hours (for TNFα-determination) or 4.5 hours (for Il-1 β and Il-6 determination).” for “0.1%.”
ELISA microtiter plates were coated with a murine anti-human IL-1^2 MAb (Human IL-1^2 Cytoset (Biosource International Inc., #CHC1214), 100 μl at 1 μg/ml) in PBS 0.02% NaN3 and incubated overnight at +4° C., The following day, microtiter plates were washed 4 times with PBS/0.05% Tween/0.02% NaN3 and blocked with 300 μl of PBS/2% bovine serum albumin (BSA)/0.02% NaN3 for 3 h. […] Plates were read in a microtiter reader (Bio-Rad) using filters of 405 and 490 nm.

[3] = Cytotoxicity in THP-1 cells (MTT); type: cell-based; conditions: human, THP-1 cells stimulated with LPS/IFNγ, LPS/IFN stimulated
Experimental: THP-1 cells are obtained from ATCC and stored in liquid nitrogen. Medium for growth of THP-1 cells: RPMI 1640(GIBCO)+10% fetal bovine serum (GIBCO)+L-glutamine (2 mM)+penicillin/streptomycin (100 U/ml) +β-mercaptoethanol (0.05 mM). Cell culture medium for THP-1 incubation: RPMI 1640(GIBCO)+5% fetal bovine serum (GIBCO)+L-glutamine (2 mM)+penicillin/streptomycin (100 U/ml)+β-mercaptoethanol (0.05 mM).
The solution for stimulation is prepared by mixing equal volumes of IFNγ (Boehringer Mannheim, 2000 U/ml) and LPS (Sigma, L8274, 100 μg/ml). The dye solution is prepared from 500 mg MTT (Sigma, M2128) in 100 ml phosphate buffered saline (PBS) and kept under sterile conditions at 4° C. Sodium dodecyl sulfate (SDS) solution (10%) is made from 50 g SDS (Bioprobe Systems) and 5 ml 1N HCl. The solution is made up to 500 ml with distilled water and kept at room temperature (precipitates in the fridge). All incubations are done at 37° C. in 5% CO2. […]
The absorbance at 540 nm is read with a microplate reader (Biotec 808 Elx). […]
Calculation of cytotoxicity: The absorbance corresponding to 100% cytotoxicity equals the absorbance of wells without cells (no MTT converted into the blue dye). The absorbance corresponding to no cytotoxicity is taken from wells without substance, but with control solvent. Percent cytotoxicity is calculated for each substance concentration.

[4] = system: IL-6 production in human dermal fibroblasts; assay: IL-6 production in human dermal fibroblasts (IL-1β stimulated, ELISA); type: cell-based; conditions: Fibroblast, 1 μM compound, IL-1β 100 pg/ml, 16-17 h
Experimental: 4. IL-6 Production in Human Dermal Fibroblasts
Human dermal foreskin fibroblasts were obtained from Clonetics (CC-2509) and grown in FBM (Clonetics, CC-3131 ) including bFGF (1 ng/ml, CC-4065), insulin (5 μg/ml, CC-4021), and 2% FCS (CC-4101).
For induction of IL-6, cells were seeded at a density of 10^4 cells per well in a 48 well tissue cluster. The following day, cells were starved for 6-7 h in FBM containing 2% FCS. Compounds were added at final concentrations of 10 and 1 μM 30 min prior to stimulation with recombinant human IL-1β (100 pg/ml).
Cell supernatant was taken 16-17 h after stimulation and the amount of released IL-6 determined in a sandwich ELISA.
ELISA microtiter plates were coated with a murine anti-human IL-6 MAb (314-14 (Novartis Pharma; batch EN23,961, 5.5 mg/ml); 100 μl at 3 μg/ml) in PBS 0.02% NaN3 and incubated overnight at +4° C., The following day, microtiter plates were washed 4 times with PBS/0.05% Tween/0.02% NaN3 and blocked with 300 μl of PBS/3% bovine serum albumin (BSA)/0.02% NaN3 for 3 h. […] Plates were read in a microtiter reader (Bio-Rad) using filters of 405 and 490 nm. IL-6 levels in culture supernatants were calculated in reference to the standard curve using the cubic curve fit. Percentage inhibitions and IC50 values were calculated

- IC50 (Recombinant human Prak): 1.1 µM
- IC50 [1]: 2.2 µM
- IC50 [2]: 1.1 µM
Compound: O=S(=O)(c1ccc(Nc2nccc(N3CCCc4c(O)cccc43)n2)cc1)N1CCCCC1 [Compound A]
- IC50 at 24 h [3]: > 30 µM
- inhibition at 1 µM [4]: 100%
